# Molecular target: T1, BA/F3-FLT3-ITD + F691L cells (Homo sapiens, UniProt P36888, F691L, cells depend on it, form not given)
# T1 sequence (P36888 1-993 F691L): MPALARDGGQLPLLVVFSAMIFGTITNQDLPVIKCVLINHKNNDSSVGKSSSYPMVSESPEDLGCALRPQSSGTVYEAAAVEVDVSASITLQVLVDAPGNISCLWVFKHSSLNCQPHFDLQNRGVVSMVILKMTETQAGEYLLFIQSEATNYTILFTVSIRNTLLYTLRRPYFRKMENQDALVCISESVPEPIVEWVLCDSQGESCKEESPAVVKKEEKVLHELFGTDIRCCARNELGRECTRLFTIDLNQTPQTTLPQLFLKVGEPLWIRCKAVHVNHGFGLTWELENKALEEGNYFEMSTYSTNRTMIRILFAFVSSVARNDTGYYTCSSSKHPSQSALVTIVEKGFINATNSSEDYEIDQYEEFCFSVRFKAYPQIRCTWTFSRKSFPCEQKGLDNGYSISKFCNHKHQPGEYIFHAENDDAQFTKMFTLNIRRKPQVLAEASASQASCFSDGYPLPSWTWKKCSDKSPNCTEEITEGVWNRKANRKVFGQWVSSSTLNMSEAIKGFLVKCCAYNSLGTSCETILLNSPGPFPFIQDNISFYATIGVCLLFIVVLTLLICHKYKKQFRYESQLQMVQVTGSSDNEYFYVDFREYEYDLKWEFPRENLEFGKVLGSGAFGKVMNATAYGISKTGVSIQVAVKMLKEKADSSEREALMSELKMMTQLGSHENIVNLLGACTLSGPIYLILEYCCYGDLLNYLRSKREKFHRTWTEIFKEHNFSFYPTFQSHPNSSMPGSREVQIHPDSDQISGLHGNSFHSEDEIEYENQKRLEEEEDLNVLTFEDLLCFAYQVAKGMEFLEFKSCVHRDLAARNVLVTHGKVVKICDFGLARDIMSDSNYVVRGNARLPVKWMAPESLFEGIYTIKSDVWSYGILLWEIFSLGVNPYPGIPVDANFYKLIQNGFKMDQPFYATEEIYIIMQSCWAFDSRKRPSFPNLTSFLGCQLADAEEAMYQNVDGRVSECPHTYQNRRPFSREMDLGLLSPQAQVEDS
# Assay: BA/F3-FLT3-ITD + F691L cell proliferation assay (CellTiter-Glo)
# Format: cell-based, murine
# Settings: BaF3 FLT3 ITD/F691L cells; read-out: Cell Activity (IC50 μM) BaF3_FLT3_ITD/F691L
# Method in brief: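 Three-day growth assay, IC50 from CellTiter-Glo ATP luminescence vs concentration. Compounds at 10 to 0.0046 μM (1:3 steps, final DMSO 0.2%) on 1×10^4 cells/well. Cells are IL-3-independent BA/F3 lines engineered to express full-length FLT3-ITD with the D835Y or the F691L mutation.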
row,Structure (SMILES),GI50 [µM]
1,"COc1cc(C#Cc2cnc3[nH]cc(-c4ccc5ncn(C(C)(C)C)c5c4)c3n2)ccn1 [P-279, 7-(1-(tert-butyl)-1H-benzo[d]imidazol-6-yl)-2-((2-methoxypyridin-4-yl)ethynyl)-5H-pyrrolo[2,3-b]pyrazine]",0.0001 to 1
2,"CC(C)(C)n1cnc2ccc(-c3c[nH]c4ncc(-c5cnc(N6CCC(F)(F)CC6)nc5)nc34)cc21 [P-357, 7-(3-tert-butylbenzimidazol-5-yl)-2-[2-(4,4-difluoro-1-piperidyl)pyrimidin-5-yl]-5H-pyrrolo[2,3-b]pyrazine]",0.0001 to 1
3,"CC(C)(C)n1cnc2ccc(-c3c[nH]c4ncc(-c5ccc(C#N)nc5)cc34)cc21 [P-290, 5-[3-(3-tert-butylbenzimidazol-5-yl)-1H-pyrrolo[2,3-b]pyridin-5-yl]pyridine-2-carbonitrile]",0.0001 to 1
4,"CC(C)(C)n1cnc2ccc(-c3c[nH]c4nnc(Cl)cc34)cc21 [P-314, 5-(3-tert-butylbenzimidazol-5-yl)-3-chloro-7H-pyrrolo[2,3-c]pyridazine]",0.0001 to 1
5,"CC(C)(C)n1cnc2ccc(-c3c[nH]c4ncc(-c5ccc(N6CCCCC6)nc5)nc34)cc21 [P-347, 7-(1-(tert-butyl)-1H-benzo[d]imidazol-6-yl)-2-(6-(piperidin-1-yl)pyridin-3-yl)-5H-pyrrolo[2,3-b]pyrazine]",0.0001 to 1
6,"CCN1CCN(c2cccc(-c3cnc4[nH]cc(-c5ccc6ncn(C(C)(C)C)c6c5)c4n3)c2)CC1 [P-330, 7-(3-tert-butylbenzimidazol-5-yl)-2-[3-(4-ethylpiperazin-1-yl)phenyl]-5H-pyrrolo[2,3-b]pyrazine]",0.0001 to 1
7,"c1cc(N2CCCCC2)ncc1-c1cnc2[nH]cc(-c3ccc4ncn(C5CCCNC5)c4c3)c2n1 (centres unmarked) [P-348, 7-[3-(3-piperidyl)benzimidazol-5-yl]-2-[6-(1-piperidyl)-3-pyridyl]-5H-pyrrolo[2,3-b]pyrazine]",0.0001 to 1
8,"CN1CCN(c2cccc(-c3cnc4[nH]cc(-c5ccc6ncn(C(C)(C)C)c6c5)c4n3)c2)CC1 [P-331, 7-(3-tert-butylbenzimidazol-5-yl)-2-[3-(4-methylpiperazin-1-yl)phenyl]-5H-pyrrolo[2,3-b]pyrazine]",0.0001 to 1
